In ChEMBL document CHEMBL5724696, “Autophagy assay results for EUbOPEN Chemogenomics Library” (2024):
Several values for one entry are separate records, joined by “and”; a condition that tells them apart may be missing. Identical values can stand only once.

Tests used:
Assay type in all cases: functional, Homo sapiens
U2OS [1] = experiment: (§1) Here: values are normalized to the negative (DMSO; defined as 0% autophagy induction) and positive (250nM Torin1; mTOR inhibitor; defined as maximal inducer of autophagy = 100%) control compounds and represented as % of autophagy induction. […] The impact of autophagy induction on cells is complex and depends on the affected target. As such, the magnitude of a phenotype may not be equally mirrored in the %-value of autophagy induction and vice versa. The dynamics of the induction may indicate the mode of activation: e.g. activation via phosphorylation or a signaling cascade may occur fast, while activation via transcription factors may take considerably longer. […] Of note, treatment concentrations may be sub-optimal for specific compounds, leading to false negative annotations.; settings: Culturing Media DMEM, 1 % Penicillin/Streptomycin, 10% Fetal bovin serum Add-On: No, Screening Media Control DMEM, Screening Media Samples DMEM
TERT-RPE1 = experiment: as §1; settings: Culturing Media DMEM/F12 (1:1), 1 % Penicillin/Streptomycin, 10% Fetal bovin serum Add-On: No, Screening Media Control DMEM/F12 (1:1), Screening Media Samples DMEM/F12 (1:1)
U2OS [2] = experiment: as §1; settings: Culturing Media DMEM, 1 % Penicillin/Streptomycin, 10% Fetal bovin serum Add-On: No, Screening Media Control DMEM, Screening Media Samples DMEM; remark: listed apart in the source
[3] = Compound Concentration 0.5 uM, Timepoint 12 hours
[4] = Compound Concentration 0.5 uM, Timepoint 24 hours
[5] = Compound Concentration 0.5 uM, Timepoint 36 hours
[6] = Compound Concentration 0.5 uM, Timepoint 60 hours
[7] = Compound Concentration 2 uM, Timepoint 12 hours
[8] = Compound Concentration 2 uM, Timepoint 24 hours
[9] = Compound Concentration 2 uM, Timepoint 36 hours
[10] = Compound Concentration 2 uM, Timepoint 60 hours
[11] = Compound Concentration 10 uM, Timepoint 12 hours
[12] = Compound Concentration 10 uM, Timepoint 24 hours
[13] = Compound Concentration 10 uM, Timepoint 36 hours
[14] = Compound Concentration 10 uM, Timepoint 60 hours

**Q.** How did the autophagy induction (U2OS [1]; [3]) turn out when `COc1ccc(CNC(=O)c2cc(-c3cncc(Cl)c3)cnc2-c2ccccn2)nc1OC` [MK-1064] was run?
**A.** Its autophagy induction is 6.6807%.

**Q.** And the autophagy induction (U2OS [1]; [4])?
**A.** Its autophagy induction is 0.4544%.

**Q.** And the autophagy induction (U2OS [1]; [5])?
**A.** The autophagy induction was -59.909%.

**Q.** And the autophagy induction (U2OS [1]; [6])?
**A.** The autophagy induction was -3.175%.

**Q.** And the autophagy induction (U2OS [1]; [7])?
**A.** Its autophagy induction is 5.723%.

**Q.** And the autophagy induction (U2OS [1]; [8])?
**A.** Its autophagy induction is -2.067%.

**Q.** And the autophagy induction (U2OS [1]; [9])?
**A.** Its autophagy induction is 2463.06%.

**Q.** What about the autophagy induction (U2OS [1]; [10]) of the same molecule?
**A.** Its autophagy induction is -2.86%.

**Q.** And the autophagy induction (U2OS [1]; [11])?
**A.** The autophagy induction was 2.927%.

**Q.** What about the autophagy induction (U2OS [1]; [12]) of the same molecule?
**A.** The autophagy induction was -3.704%.

**Q.** What about the autophagy induction (U2OS [1]; [13]) of the same molecule?
**A.** The autophagy induction was 1020.2%.

**Q.** And the autophagy induction (U2OS [1]; [14])?
**A.** The autophagy induction was -2.212%.

**Q.** What about the autophagy induction (TERT-RPE1; Compound Concentration 0.5 uM, Timepoint 12 hours, 12 h, 0.5 µM) of the same molecule?
**A.** The autophagy induction was -1.649% and -1.281%.

**Q.** What about the autophagy induction (TERT-RPE1; Compound Concentration 0.5 uM, Timepoint 24 hours, 24 h, 0.5 µM) of the same molecule?
**A.** Its autophagy induction is -0.5797% and -3.213%.

**Q.** And the autophagy induction (TERT-RPE1; Compound Concentration 0.5 uM, Timepoint 36 hours, 36 h, 0.5 µM)?
**A.** Its autophagy induction is -3.034% and -3.261%.

**Q.** And the autophagy induction (TERT-RPE1; Compound Concentration 0.5 uM, Timepoint 60 hours, 60 h, 0.5 µM)?
**A.** Its autophagy induction is -3.035% and -4.321%.

**Q.** And the autophagy induction (TERT-RPE1; Compound Concentration 2 uM, Timepoint 12 hours, 12 h, 2 µM)?
**A.** The autophagy induction was 3.536% and 7.073%.

**Q.** And the autophagy induction (TERT-RPE1; Compound Concentration 2 uM, Timepoint 24 hours, 24 h, 2 µM)?
**A.** The autophagy induction was -0.496% and 6.728%.

**Q.** And the autophagy induction (TERT-RPE1; Compound Concentration 2 uM, Timepoint 36 hours, 36 h, 2 µM)?
**A.** Its autophagy induction is -2.12% and 5.645%.

**Q.** What about the autophagy induction (TERT-RPE1; Compound Concentration 2 uM, Timepoint 60 hours, 60 h, 2 µM) of the same molecule?
**A.** Its autophagy induction is -0.3513% and 7.579%.

**Q.** And the autophagy induction (TERT-RPE1; Compound Concentration 10 uM, Timepoint 12 hours, 12 h, 10 µM)?
**A.** The autophagy induction was 0.9286% and 0.4822%.

**Q.** What about the autophagy induction (TERT-RPE1; Compound Concentration 10 uM, Timepoint 24 hours, 24 h, 10 µM) of the same molecule?
**A.** The autophagy induction was 1.419% and 1.256%.

**Q.** And the autophagy induction (TERT-RPE1; Compound Concentration 10 uM, Timepoint 36 hours, 36 h, 10 µM)?
**A.** The autophagy induction was 0.4472% and 1.634%.

**Q.** And the autophagy induction (TERT-RPE1; Compound Concentration 10 uM, Timepoint 60 hours, 60 h, 10 µM)?
**A.** Its autophagy induction is 0.346% and 3.096%.

**Q.** What about the autophagy induction (U2OS [2]; [3]) of the same molecule?
**A.** Its autophagy induction is 12.3622%.

**Q.** And the autophagy induction (U2OS [2]; [4])?
**A.** Its autophagy induction is 4.385%.

**Q.** And the autophagy induction (U2OS [2]; [5])?
**A.** The autophagy induction was 3.479%.

**Q.** What about the autophagy induction (U2OS [2]; [6]) of the same molecule?
**A.** The autophagy induction was -7.04%.

**Q.** What about the autophagy induction (U2OS [2]; [7]) of the same molecule?
**A.** The autophagy induction was 9.573%.

**Q.** And the autophagy induction (U2OS [2]; [8])?
**A.** Its autophagy induction is 2.106%.

**Q.** And the autophagy induction (U2OS [2]; [9])?
**A.** The autophagy induction was 1.004%.

**Q.** And the autophagy induction (U2OS [2]; [10])?
**A.** The autophagy induction was 0.7274%.

**Q.** What about the autophagy induction (U2OS [2]; [11]) of the same molecule?
**A.** The autophagy induction was 0.3207%.

**Q.** And the autophagy induction (U2OS [2]; [12])?
**A.** The autophagy induction was -2.025%.

**Q.** What about the autophagy induction (U2OS [2]; [13]) of the same molecule?
**A.** The autophagy induction was -1.481%.

**Q.** And the autophagy induction (U2OS [2]; [14])?
**A.** The autophagy induction was 2.712%.
